Patent publication US7598255B2 (Janssen Pharmaceutica NV, priority 2005, dated 2009)
Where a name gives a salt, the structure may show the parent alone.

Tests used:
5-HT2B receptor = 5-HT2B receptor (Homo sapiens, UniProt P41595); test: Affinity for 5HT2 receptor binding sites, h5-HT2B, [3H]mesulergine; conditions: CHO h5-HT2B membranes
Method: Sigmoidal inhibition curves were generated and fitted by nonlinear regression analysis (GraphPad Prism).
Receptor binding was performed using the human recombinant 5-HT2A (GB: X57830), 5-HT2B (GB: Z36748) and 5-HT2C (GB: M81778) receptors. The affinity of the compounds for the 3 different human 5-HT2 receptor subtypes was evaluated by competitive radioligand binding assays using [^3H]ketanserin (h5-HT2A) or [^3H]mesulergine (h5-HT2B and h5-HT2C). The assays were performed on membranes prepared from NIH3T3 stably transfected with h5-HT2A or CHO stably transfected with h5-HT2B and h5-HT2C.

5-HT2A receptor = 5-HT2A receptor (Homo sapiens, UniProt P28223); test: Affinity for 5-HT2A receptor binding sites, radioligand binding with [3H]ketanserin; conditions: read-out: Ki 5-HT2A, rat cortex membranes (assay 2) or NIH3T3 h5-HT2A membranes (assay 3), table does not say which
rat 5-HT7a receptor = rat 5-HT7a receptor (Rattus norvegicus, UniProt P32305); test: Affinity for 5-HT7 receptor binding sites, radioligand binding with [3H]5-CT; conditions: membranes of HEK-293 cells with rat 5-HT7a, 1 nM [3H]5-CT
Method: The affinity of the compounds described in this invention for the 5-HT7 receptor binding site was evaluated by single competition radioligand binding assay. The assay was performed on membranes prepared from HEK-293 cells that had been subjected to stable transfection with the rat 5-HT7a receptor (GB: NM022938). Cells were scraped from the culture plates, suspended in Tris-HCl 50 mM pH 7.5 and collected through centrifugation (1000 rpm for 5 min). The cell pellets were homogenized (Polytron, 15 s, setting 5) in 50 mM Tris-HCl (pH 7.5), 5 mM EDTA. Following centrifugation (15,000 rpm for 25 min), membranes (135 μg protein/mL) were resuspended in the same buffer and incubated for 60 min at RT with 1 nM [^3H]5-CT in the presence of increasing concentration of test compounds. Nonspecific binding was defined in the presence of 10 μM 5-HT. Incubation was stopped by rapid filtration using the cell harvester (Packard). Radioactivity was counted in a TopCount-NXT (Packard). Experiments were conducted in triplicate.

[1] = target: T1, human recombinant 5-HT2C receptor (Homo sapiens, UniProt P28335); test: Affinity for 5HT2 receptor binding sites, h5-HT2C, [3H]mesulergine; conditions: CHO h5-HT2C membranes
T1 sequence (P28335 33-458): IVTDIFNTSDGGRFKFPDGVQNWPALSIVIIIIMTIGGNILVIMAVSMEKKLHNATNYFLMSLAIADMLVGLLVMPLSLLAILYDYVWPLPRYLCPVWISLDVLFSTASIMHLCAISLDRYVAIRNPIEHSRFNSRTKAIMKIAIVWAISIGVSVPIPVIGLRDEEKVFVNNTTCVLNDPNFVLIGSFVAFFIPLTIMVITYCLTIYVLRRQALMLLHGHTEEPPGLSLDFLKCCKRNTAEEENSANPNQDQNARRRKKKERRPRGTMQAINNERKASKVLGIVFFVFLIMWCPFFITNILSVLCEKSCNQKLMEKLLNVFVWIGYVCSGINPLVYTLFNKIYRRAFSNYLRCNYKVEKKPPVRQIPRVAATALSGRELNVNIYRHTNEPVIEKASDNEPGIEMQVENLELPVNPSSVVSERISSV

Chain of rat 5-HT7a receptor (P32305 whole entry): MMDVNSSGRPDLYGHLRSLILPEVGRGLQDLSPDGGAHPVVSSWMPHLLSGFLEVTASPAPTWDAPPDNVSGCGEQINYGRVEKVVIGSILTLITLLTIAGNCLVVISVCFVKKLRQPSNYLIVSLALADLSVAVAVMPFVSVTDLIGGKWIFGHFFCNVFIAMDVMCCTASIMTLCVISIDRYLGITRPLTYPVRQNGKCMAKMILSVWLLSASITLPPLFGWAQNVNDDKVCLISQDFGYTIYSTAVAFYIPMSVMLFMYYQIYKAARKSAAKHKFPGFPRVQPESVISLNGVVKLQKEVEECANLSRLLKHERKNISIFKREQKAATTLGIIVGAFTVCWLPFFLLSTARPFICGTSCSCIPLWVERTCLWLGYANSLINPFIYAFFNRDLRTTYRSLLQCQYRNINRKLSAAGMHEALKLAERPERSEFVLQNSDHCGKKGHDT
Chain of 5-HT2B receptor (P41595 whole entry): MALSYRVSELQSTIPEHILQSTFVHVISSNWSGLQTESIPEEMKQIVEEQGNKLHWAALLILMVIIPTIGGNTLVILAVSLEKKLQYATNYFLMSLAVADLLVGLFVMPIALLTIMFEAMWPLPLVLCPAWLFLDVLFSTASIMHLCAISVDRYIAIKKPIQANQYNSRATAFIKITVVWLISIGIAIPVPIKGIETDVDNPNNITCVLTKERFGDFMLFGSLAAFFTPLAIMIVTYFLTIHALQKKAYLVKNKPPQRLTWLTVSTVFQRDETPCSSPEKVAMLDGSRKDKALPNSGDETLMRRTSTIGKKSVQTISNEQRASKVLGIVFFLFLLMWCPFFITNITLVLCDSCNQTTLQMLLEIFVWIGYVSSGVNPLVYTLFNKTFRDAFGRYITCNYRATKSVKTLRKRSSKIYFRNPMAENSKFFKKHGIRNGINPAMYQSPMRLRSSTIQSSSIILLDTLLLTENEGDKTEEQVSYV

SMILES	Ki (5-HT2B receptor) [µM]	Ki (5-HT2A receptor) [µM]	Ki (rat 5-HT7a receptor) [µM]	Ki [1] [µM]
CC(C)c1nc2c(c(-c3ccsc3)n1)CCN(C)C2 [Example 91, 2-Isopropyl-7-methyl-4-thiophen-3-yl-5,6,7,8-tetrahydro-pyrido[3,4-d]pyrimidine hydrochloride]	0.2	0.075	> 10	9
CC(C)c1nc(-c2ccc(F)cc2)c2c(n1)C(C)CN(Cc1ccccc1)C2 (stereo not drawn) [Example 92, 6-Benzyl-4-(4-fluoro-phenyl)-2-isopropyl-8-methyl-5,6,7,8-tetrahydro-pyrido[4,3-d]pyrimidine]	> 10	0.3	> 10	> 10
CC(C)c1nc(-c2ccc(F)c(Cl)c2)c2c(n1)C(C)CN(Cc1ccccc1)C2 (stereo not drawn) [Example 93, 6-Benzyl-4-(3-chloro-4-fluoro-phenyl)-2-isopropyl-8-methyl-5,6,7,8-tetrahydro-pyrido[4,3-d]pyrimidine]	> 10	> 10	> 10	> 10
Cc1ccc(-c2nc(C(C)C)nc3c2CN(Cc2ccccc2)CC3C)cc1 (stereo not drawn) [Example 94, 6-Benzyl-2-isopropyl-8-methyl-4-p-tolyl-5,6,7,8-tetrahydro-pyrido[4,3-d]pyrimidine]	> 10	> 10	> 10	> 10
CC(C)c1nc(-c2ccccc2)c2c(n1)C(C)CN(Cc1ccccc1)C2 (stereo not drawn) [Example 95, 6-Benzyl-2-isopropyl-8-methyl-4-phenyl-5,6,7,8-tetrahydro-pyrido[4,3-d]pyrimidine]	> 10	2	> 10	> 10
CC(C)c1nc(-c2ccc(C(F)(F)F)cc2)c2c(n1)C(C)CN(Cc1ccccc1)C2 (stereo not drawn) [Example 96, 6-Benzyl-2-isopropyl-8-methyl-4-(4-trifluoromethyl-phenyl)-5,6,7,8-tetrahydro-pyrido[4,3-d]pyrimidine]	> 10	> 10	> 10	> 10
CC(C)c1nc(-c2ccc(Cl)cc2)c2c(n1)C(C)CN(Cc1ccccc1)C2 (stereo not drawn) [Example 97, 6-Benzyl-4-(4-chloro-phenyl)-2-isopropyl-8-methyl-5,6,7,8-tetrahydro-pyrido[4,3-d]pyrimidine]	> 10	> 10	> 10	> 10
CC(C)c1nc(-c2ccsc2)c2c(n1)C(C)CN(Cc1ccccc1)C2 (stereo not drawn) [Example 98, 6-Benzyl-2-isopropyl-8-methyl-4-thiophen-3-yl-5,6,7,8-tetrahydro-pyrido[4,3-d]pyrimidine]	> 10	> 10	> 10	> 10
CC(C)c1nc(-c2ccc(-c3ccc(Cl)cc3)cc2)c2c(n1)C(C)CN(Cc1ccccc1)C2 (stereo not drawn) [Example 99, 6-Benzyl-4-(4′-chloro-biphenyl-4-yl)-2-isopropyl-8-methyl-5,6,7,8-tetrahydro-pyrido[4,3-d]pyrimidine]	> 10	> 10	> 10	> 10
CC(C)c1nc(-c2ccc(F)c(Cl)c2)c2c(n1)C(C)CNC2 (stereo not drawn) [Example 101, 4-(3-Chloro-4-fluoro-phenyl)-2-isopropyl-8-methyl-5,6,7,8-tetrahydro-pyrido[4,3-d]pyrimidine hydrochloride]	> 10	0.4	> 10	> 10
CC(C)c1nc(-c2ccccc2)c2c(n1)C(C)CNC2 (stereo not drawn) [Example 103, 2-Isopropyl-8-methyl-4-phenyl-5,6,7,8-tetrahydro-pyrido[4,3-d]pyrimidine]	1	0.04	> 10	1
CC(C)c1nc(-c2ccc(C(F)(F)F)cc2)c2c(n1)C(C)CNC2 (stereo not drawn) [Example 104, 2-Isopropyl-8-methyl-4-(4-trifluoromethyl-phenyl)-5,6,7,8-tetrahydro-pyrido[4,3-d]pyrimidine]	0.5	0.7	> 10	3
CC(C)c1nc(-c2ccsc2)c2c(n1)C(C)CNC2 (stereo not drawn) [Example 105, 2-Isopropyl-8-methyl-4-thiophen-3-yl-5,6,7,8-tetrahydro-pyrido[4,3-d]pyrimidine]	0.1	0.04	> 10	0.4
CC(C)c1nc2c(c(-c3ccc(F)cc3)n1)CN(Cc1ccccc1)C2 [Example 106, hydrochloride]	6.3	0.09	> 10	> 10
CNC1CCc2c(nc(C(C)C)nc2-c2ccc(F)cc2)C1 (stereo not drawn) [Example 108, [4-(4-Fluoro-phenyl)-2-isopropyl-5,6,7,8-tetrahydro-quinazolin-7-yl]-methyl-amine hydrochloride]	0.042	0.018	> 10	1
CC(C)c1nc2c(c(-c3ccc(F)cc3)n1)CCC(O)C2 (stereo not drawn) [Example 110, 4-(4-Fluoro-phenyl)-2-isopropyl-5,6,7,8-tetrahydro-quinazolin-7-ol]	1.2	0.22	> 10	4
CC(C)c1nc2c(c(-c3ccc(F)cc3)n1)CCCC2 [Example 111, 4-(4-Fluoro-phenyl)-2-isopropyl-5,6,7,8-tetrahydro-quinazoline]	3.5	0.3	> 10	> 10
Cc1ccc(-c2cc(CN(C)C)nc(Cc3ccccc3)n2)cc1 [Example 112, (2-Benzyl-6-p-tolyl-pyrimidin-4-ylmethyl)-dimethyl-amine]	> 10	0.13	> 10	> 10
Cc1ccc(-c2cc(CN3CCN(C)CC3)nc(Cc3ccccc3)n2)cc1 [Example 113, 2-Benzyl-4-(4-methyl-piperazin-1-ylmethyl)-6-p-tolyl-pyrimidine]	> 10	0.65	> 10	> 10
CNCc1cc(-c2ccc(F)cc2)nc(C(C)C)n1 [Example 114, [6-(4-Fluoro-phenyl)-2-isopropyl-pyrimidin-4-ylmethyl]-methyl-amine]	0.3	0.035	> 10	1
Cc1ccc(-c2cc(CCN)nc(Cc3ccccc3)n2)cc1 [Example 115, 2-(2-Benzyl-6-p-tolyl-pyrimidin-4-yl)-ethylamine]	5	1	5	> 10
Cc1ccc(-c2nc(Cc3ccc(F)cc3)ncc2CN(C)C)cc1 [Example 116, [2-(4-Fluoro-benzyl)-4-p-tolyl-pyrimidin-5-ylmethyl]-dimethyl-amine]	> 10	2	> 10	> 10
Fc1ccc(-c2nc(-c3ccccc3)nc3c2CNCC3)cc1 [Example 117, 4-(4-Fluoro-phenyl)-2-phenyl-5,6,7,8-tetrahydro-pyrido[4,3-d]pyrimidine]	1	0.05	> 10	4
CN(C)CCc1cc(-c2ccc(F)cc2)nc(C(C)(C)C)n1 [Example 167, {2-[2-tert-Butyl-6-(4-fluoro-phenyl)-pyrimidin-4-yl]-ethyl}-dimethyl-amine]	0.014	0.007	0.45	0.2
